From patent US10301295B2, “Herbicidal compounds” (Syngenta Participations AG, priority 2014, dated 2019)
Where two headings read alike, the source gives them in different places.

Legend:
Format in all cases: in vivo
Avena fatua (AVEFA) = assay: Glasshouse assay for herbicidal activity, pre-/post-emergence (percentage phytotoxicity); settings: Avena fatua, Rate 250 g/ha, 100%=total damage, 0%=no damage
Method in brief: (§1)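 Seeds sown in standard soil in pots, grown 1 day (pre-emergence) or ~12 days (post-emergence) before treatment. Glasshouse: warm species 24/18 °C, cool species 20/16 °C day/night, 16 h light, 65% humidity, watered twice daily. Visual phytotoxicity scored 15DAA (post) or 20DAA (pre); 0% none, 100% total damage.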

[1] = system: Echinochloa crus-galli (ECHCG); assay: as above; settings: Echinochloa crus-galli, Rate 250 g/ha, 100%=total damage, 0%=no damage
Method in brief: as §1

[2] = system: Alopecurus myosuroides (ALOMY); assay: as above; settings: Alopecurus myosuroides, Rate 250 g/ha, 100%=total damage, 0%=no damage
Method in brief: as §1

Lolium perenne (LOLPE) = assay: as above; settings: Lolium perenne, Rate 250 g/ha, 100%=total damage, 0%=no damage
Method in brief: as §1

wheat = assay: Post-emergence herbicidal activity against cereal crops (wheat) +/- safener, crop selectivity; settings: 100%=total damage to plant, 0%=no damage; for Post-emergence herbicidal activity against wheat (percentage phytotoxicity), +CQC: 250 g/ha, plus safener cloquintocet-mexyl (CQC) applied at 50 g/ha; for percent phytotoxicity (crop damage) to wheat at 250 g/ha: Triticum aestivum, 360 h, without safener, read-out: Post-emergence herbicidal activity against wheat (percentage phytotoxicity), Wheat - CQC
Protocol: Seeds of a variety of monocotyledonous and dicotyledonous test plants are sown in standard soil in pots. The plants are cultivated for one day (for pre-emergence) or for about 12 days (for post-emergence) under controlled conditions in a glasshouse (warm climate species at 24/18° C., cool climate species at 20/16° C., both at day/night; 16 hours light; 65% humidity). The test plants are then grown on, in a glasshouse (greenhouse) under controlled conditions (warm climate species at 24/18° C., cool climate species at 20/16° C., both at day/night; 16 hours light; 65% humidity) and are watered twice daily. 15 days after application of the test herbicide (15DAA) (for post-emergence), and 20 days after application of the test herbicide (20DAA) (for pre-emergence), the test plants are evaluated visually, and an assessed percentage phytotoxicity score is given for each herbicidal application on each plant species (with 100%=total damage to plant; 0%=no damage to plant).

[3] = post-emergence, 360 h, post-emergence, visual assessment 15 DAA, read-out: Post-emergence herbicidal activity (percentage phytotoxicity), AVEFA POST
[4] = pre-emergence, 480 h, pre-emergence, visual assessment 20 DAA, read-out: Pre-emergence herbicidal activity (percentage phytotoxicity), AVEFA PRE
[5] = post-emergence, 360 h, post-emergence, visual assessment 15 DAA, read-out: Post-emergence herbicidal activity (percentage phytotoxicity), ECHCG POST
[6] = pre-emergence, 480 h, pre-emergence, visual assessment 20 DAA, read-out: Pre-emergence herbicidal activity (percentage phytotoxicity), ECHCG PRE
[7] = 360 h, post-emergence, visual assessment 15 DAA, read-out: Post-emergence herbicidal activity (percentage phytotoxicity), ALOMY POST
[8] = 480 h, pre-emergence, visual assessment 20 DAA, read-out: Pre-emergence herbicidal activity (percentage phytotoxicity), ALOMY PRE
[9] = post-emergence, 360 h, post-emergence, visual assessment 15 DAA, read-out: Post-emergence herbicidal activity (percentage phytotoxicity), LOLPE POST
[10] = pre-emergence, 480 h, pre-emergence, visual assessment 20 DAA, read-out: Pre-emergence herbicidal activity (percentage phytotoxicity), LOLPE PRE

| Compound | pest or weed control at 250 g/ha (Avena fatua (AVEFA); [3]) [%] | pest or weed control at 250 g/ha (Avena fatua (AVEFA); [4]) [%] | pest or weed control at 250 g/ha [1, 5] [%] | pest or weed control at 250 g/ha [1, 6] [%] | pest or weed control at 250 g/ha [2, 7] [%] | pest or weed control at 250 g/ha [2, 8] [%] | pest or weed control at 250 g/ha (Lolium perenne (LOLPE); [9]) [%] | pest or weed control at 250 g/ha (Lolium perenne (LOLPE); [10]) [%] | Post-emergence herbicidal activity against wheat (percentage phytotoxicity), +CQC (wheat) [%] | percent phytotoxicity (crop damage) to wheat at 250 g/ha (wheat) [%] |
| --- | --- | --- | --- | --- | --- | --- | --- | --- | --- | --- |
| Cc1cc(C)c(C2C(=O)CC(CCNS(=O)(=O)c3ccc(Cl)cc3)C2=O)c(C)c1 (centres unmarked) [Compound A81] | 70 | 70 | 60 | 70 | 60 | 60 | 60 | 70 | 0 | 0 |
| Cc1cc(-n2cc(Cl)cn2)cc(C)c1C1C(=O)CC(CCNC(=O)Nc2ccc(F)cn2)C1=O (centres unmarked) [Compound A28] | 100 | 70 | 90 | 90 | 90 | 70 | 80 | 70 | 20 | 80 |
| Cc1cc(-c2ncc(Cl)cc2F)cc(C)c1C1C(=O)CC(CCNC(=O)NC(C)(C)C)C1=O.Cl (centres unmarked) [Compound A29] | 100 | 100 | 100 | 90 | 100 | 90 | 100 | 100 | 70 | 90 |
| Cc1cc(C)c(C2C(=O)CC(CCNC(=O)NCc3ccccc3)C2=O)c(C)c1 (centres unmarked) [Compound A7] | 90 | 0 | 90 | 0 | 10 | 0 | 70 | 0 | 0 | 20 |
| CONC(=O)NCCC1CC(=O)C(c2c(C)cc(C)cc2C)C1=O (centres unmarked) [Compound A18] | 80 | 50 | 90 | 60 | 80 | 60 | 80 | 70 | 0 | 60 |
| Cc1cc(C)c(C2C(=O)CC(CCNC(=O)NO)C2=O)c(C)c1 (centres unmarked) [Compound A26] | 0 | 0 | 10 | 0 | 10 | 0 | 40 | 0 | 10 | 0 |
| Cc1cc(-c2ncc(Cl)cc2F)cc(C)c1C1C(=O)CC(CCNC(=O)N(C)c2ccccn2)C1=O.Cl (centres unmarked) [Compound A27] | 90 | 90 | 100 | 90 | 90 | 60 | 100 | 90 | 70 | 80 |
| Cc1cc(C)c(C2C(=O)CC(CCNS(=O)(=O)c3ccc(F)cc3)C2=O)c(C)c1 (centres unmarked) [Compound A73] | 60 | 0 | 30 | 30 | 40 | 70 | 60 | 70 | 10 | 0 |
| Cc1cc(-n2cc(Cl)cn2)cc(C)c1C1C(=O)CC(CCNC(=O)N(C)c2ccccn2)C1=O (centres unmarked) [Compound A20] | 100 | 80 | 100 | 100 | 80 | 20 | 90 | 80 | 0 | 80 |
| Cc1cc(C)c(C2C(=O)CC(CCNC(=O)NC(=O)c3ccccc3)C2=O)c(C)c1 (centres unmarked) [Compound A46] | 90 | 30 | 100 | 60 | 70 | 30 | 100 | 70 | 70 | 80 |
| Cc1cc(C)c(C2C(=O)CC(CCNC(=O)N(C)Cc3ccccc3)C2=O)c(C)c1 (centres unmarked) [Compound A10] | 80 | 0 | 90 | 0 | 80 | 0 | 90 | 0 | 20 | 70 |
| Cc1cc(C)c(C2C(=O)CC(CCNC(=O)N(C)c3ccccc3)C2=O)c(C)c1 (centres unmarked) [Compound A8] | 90 | 90 | 80 | 90 | 80 | 70 | 90 | 90 | 10 | 70 |
| Cc1cc(C)c(C2C(=O)CC(CCNC(=O)NC(=O)c3ccc(Cl)cc3F)C2=O)c(C)c1 (centres unmarked) [Compound A59] | 90 | 30 | 90 | 100 | 90 | 70 | 100 | 80 | 80 | 90 |
| Cc1cc(C)c(C2C(=O)CC(CCNC(=S)Nc3ccccc3F)C2=O)c(C)c1 (centres unmarked) [Compound A88] | 0 | 0 | 0 | 40 | 0 | 0 | 60 | 40 | 0 | 0 |
| Cc1cc(C)c(C2C(=O)CC(CCNC(=O)NC(=O)c3ccccc3C#N)C2=O)c(C)c1 (centres unmarked) [Compound A67] | – | 0 | – | 30 | – | 0 | – | 20 | 0 | 0 |
